ChEMBL document CHEMBL3044644, “Syntheses and antiproliferative activity of some sulfated hydroximinosterols” (Med Chem Res, 2013)
pIC50: −log10 of the molar value.

Legend:
Format in all cases: functional, cell-based
[1] = Cytotoxicity against Homo sapiens (human) SMMC-7404 cells assessed as cell viability after 72 hr by MTT assay
[2] = system: HeLa; experiment: Cytotoxicity against Homo sapiens (human) HeLa cells assessed as cell viability after 72 hr by MTT assay
[3] = Cytotoxicity against Homo sapiens (human) MGC7901 cells assessed as cell viability after 72 hr by MTT assay

Structure (SMILES) | IC50 [1] | pIC50 [2] | IC50 [3]
CC(C)CCC[C@@H](C)[C@H]1CC[C@H]2[C@@H]3C/C(=N/O)C4C[C@@H](OS(=O)(=O)[O-])CC[C@]4(C)[C@H]3CC[C@]12C.[Na+] (some centres not stated) | 12.9 µM | 5.02 | 6.5 µM
CC[C@H](/C=C/[C@@H](C)[C@H]1CC[C@H]2[C@@H]3C/C(=N/O)C4C[C@@H](OS(=O)(=O)[O-])CC[C@]4(C)[C@H]3CC[C@]12C)C(C)C.[Na+] (some centres not stated) | > 100 µM | 4.84 | 27.7 µM
CC(C)CCC[C@@H](C)[C@H]1CC[C@H]2[C@@H]3C/C(=N/O)C4=C[C@@H](OS(=O)(=O)[O-])CC[C@]4(C)[C@H]3CC[C@]12C.[Na+] | 62.2 µM | 4.60 | > 100 µM
CC(C)CCC[C@@H](C)[C@H]1CC[C@H]2[C@@H]3C[C@H](OS(=O)(=O)[O-])C4C/C(=N/O)CC[C@]4(C)[C@H]3CC[C@]12C.[Na+] (some centres not stated) | 10.2 µM | 4.90 | 33.3 µM
